Test [1] addresses T1, Cannabinoid receptor 2 (Homo sapiens, UniProt P34972). Kind of test: SAR analysis of antagonists of the Cannabinoid Receptor 2 using an Image-Based Assay. [Related pubchem assays (depositor defined):AID2013, AID2026]. It is filed as functional.
Test [2] addresses T2, G-protein coupled receptor 35 (Homo sapiens, UniProt Q9HC97). Kind of test: SAR analysis of Agonists of the GPR35 Receptor using an Image-Based Assay - Set 2. [Related pubchem assays (depositor defined):AID2013, AID2026]. It is filed as functional.
In test [3] the target is T3, G-protein coupled receptor 55 (Homo sapiens, UniProt Q9Y2T6). Kind of test: GPR55 antagonists blocking LPI-driven arrestin recruitment, primary screen, imaging, U2OS, beta-arrestin-GFP, LPI agonist (AID 2013).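 Note: antagonist potency measured as reduced agonist-driven arrestin aggregation.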 It counts as functional.
Test [4] has as its target T2, G-protein coupled receptor 35. Kind of test: SAR analysis of Antagonists of the GPR35 Receptor using an Image-Based Assay - Set 3. [Related pubchem assays (depositor defined):AID2013, AID2026]. It is filed as functional.
Test [5] has as its target T4, Cannabinoid receptor 1 (Homo sapiens, UniProt P21554). Kind of test: SAR analysis of antagonists of the Cannabinoid Receptor 1 using an Image-Based Assay - Set 2. [Related pubchem assays (depositor defined):AID2013, AID2026]. It counts as functional.
Test [6] has as its target T4, Cannabinoid receptor 1. Kind of test: SAR analysis of agonists of the Cannabinoid Receptor 1 using an Image-Based Assay - Set 2. [Related pubchem assays (depositor defined):AID2013, AID2026]. It is filed as functional.
For test [7], the target named is T3, G-protein coupled receptor 55. Kind of test: GPR55 antagonist potency of analogs, SAR follow-up, imaging, U2OS, beta-arrestin-GFP, LPI agonist, set 2 (AID 2820). It is filed as functional.
The target in test [8] is T1, Cannabinoid receptor 2. As to the kind of experiment: SAR analysis of agonists of the Cannabinoid Receptor 2 using an Image-Based Assay. [Related pubchem assays (depositor defined):AID2013, AID2026]. It counts as functional.
Test [9] deals with T5, Dual specificity protein phosphatase 6 (Rattus norvegicus, UniProt Q64346).
T5 sequence (Q64346 whole entry): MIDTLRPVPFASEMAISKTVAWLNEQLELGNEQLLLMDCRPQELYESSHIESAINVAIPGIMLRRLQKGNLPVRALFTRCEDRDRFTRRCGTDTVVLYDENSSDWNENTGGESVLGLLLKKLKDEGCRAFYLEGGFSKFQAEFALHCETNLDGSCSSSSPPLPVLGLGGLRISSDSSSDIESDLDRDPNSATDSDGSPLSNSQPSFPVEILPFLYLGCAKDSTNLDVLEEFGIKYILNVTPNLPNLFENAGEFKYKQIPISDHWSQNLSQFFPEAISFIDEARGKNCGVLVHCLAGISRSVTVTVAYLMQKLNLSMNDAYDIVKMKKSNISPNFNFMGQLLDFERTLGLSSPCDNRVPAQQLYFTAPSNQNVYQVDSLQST
Kind of test: MKP-3 phosphatase inhibitors, primary screen, biochemical, rat enzyme, in vitro (AID 425).

For test [10], the target named is T6, Carboxy-terminal domain RNA polymerase II polypeptide A small phosphatase 1 (Homo sapiens, UniProt Q9GZU7).
T6 sequence (Q9GZU7 whole entry): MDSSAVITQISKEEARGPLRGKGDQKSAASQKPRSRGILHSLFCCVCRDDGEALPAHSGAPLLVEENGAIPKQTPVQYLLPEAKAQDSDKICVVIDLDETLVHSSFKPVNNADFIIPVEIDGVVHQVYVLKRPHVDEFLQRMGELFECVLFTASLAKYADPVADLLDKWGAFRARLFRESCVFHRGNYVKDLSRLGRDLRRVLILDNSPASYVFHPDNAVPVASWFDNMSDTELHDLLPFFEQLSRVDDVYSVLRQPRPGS
As to the kind of experiment: inhibitors of CTDSP1, concentration-response testing, biochemical assay, absorbance-based, actives from ultra-high-throughput screening (AID 540297). It counts as functional.

In test [11] the target is T7, Dual specificity protein phosphatase 3 (Homo sapiens, UniProt P51452). Kind of test: VHR1 phosphatase inhibitors, biochemical (AID 1878).
Test [12] has as its target T8, Voltage-gated N-type calcium channel alpha-1B subunit/Amyloid beta A4 precursor protein-binding family A member 1 (Homo sapiens, UniProt Q00975+Q02410). It is filed as protein assay.
The target in test [13] is T7, Dual specificity protein phosphatase 3. As to the kind of experiment: VHR1 phosphatase inhibitors, primary screen, biochemical, absorbance, uHTS (AID 1654).
The target in test [14] is T8, Voltage-gated N-type calcium channel alpha-1B subunit/Amyloid beta A4 precursor protein-binding family A member 1. It counts as protein assay. This is another data set of the same source.
For test [15], the target named is T9, Delta-type opioid receptor (Homo sapiens, UniProt P41143). Kind of test: HTS Image-Based Screen for Agonists of the DOR Receptor. [Related pubchem assays (depositor defined):AID1777, AID1786, AID2133]. It is filed as functional.
The target of test [16] is T10, Kappa-type opioid receptor (Homo sapiens, UniProt P41145). It is filed as functional.
Test [17] deals with T9, Delta-type opioid receptor. Kind of test: HTS Image-Based Screen for Antagonists of the DOR Receptor. [Related pubchem assays (depositor defined):AID1777, AID1785, AID1786, AID2133]. It is filed as functional.
A further test addresses Mu-type opioid receptor (Homo sapiens, UniProt P35372). As to the kind of experiment: HTS Image-Based Screen for Agonists of the MOR Receptor. [Related pubchem assays (depositor defined):AID1777, AID1785, AID1786, AID2133]. It counts as functional.
Test [18] concerns the target T10, Kappa-type opioid receptor. It counts as functional. The source holds these as a separate data set.
Test [19] deals with T3, G-protein coupled receptor 55. As to the kind of experiment: GPR55 antagonists, SAR follow-up, counter-screen for GPR35 antagonist project, imaging, image-based (AID 2397). It is filed as functional. Background: Counterscreens check selectivity or assay interference.
The target in test [20] is T2, G-protein coupled receptor 35. As to the kind of experiment: SAR Analysis for the identification of Selective Antagonists of ERK1/2 Activity in GPR35-Overexpressing U2OS Cells. [Related pubchem assays: 2079, 2058 ]. It is filed as functional, cell-based.
A short description of test [21]: growth suppression of PTEN-null colon cells, dose response, cell-based, HCT116 PTEN knockout (AID 1047).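 Note: HCT116 colon tumor cells with PTEN knocked out; cells exposed to compound for 60 hours before readout; potency for loss of cell viability measured by luminescence.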 It counts as functional.
Test [22] can be described thus: growth suppression of beta-catenin-knockout colon cells, dose response, cell-based, HCT116, human colon tumor (AID 1045).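 Note: HCT116 colon tumor cells with beta catenin knocked out; cells exposed to compound for 60 hours.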 It counts as functional.
Test [23] in a line: microbe, parasite or virus in culture. It is filed as functional. Particulars: Mycobacterium tuberculosis.
Test [24] has as its target T11, Beta-2 adrenergic receptor (Homo sapiens, UniProt P07550). Kind of test: beta2AR agonists driving receptor internalization, dose response, cell-based, FAP fluorogen, flow cytometry, cherry pick 1 (AID 588763). It counts as functional. On the technique in general: In flow cytometry, cells or beads pass a laser one at a time.
Test [25] addresses T11, Beta-2 adrenergic receptor. Kind of test: Dose response for HTS for Beta-2AR agonists via FAP method from Powderset3. It is filed as functional.
Test [26] has as its target T2, G-protein coupled receptor 35. Kind of test: GPR35 antagonists blocking zaprinast-driven arrestin recruitment, primary screen, imaging, U2OS, beta-arrestin-GFP, zaprinast agonist (AID 2058).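 Note: antagonist potency meaning inhibition of agonist-induced arrestin redistribution.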 It counts as functional. In general terms: Activated receptors often draw arrestin, which recruitment assays turn into a signal.

For four molecules, IC50, EC50 and CC50 results are on record in ChEMBL document CHEMBL1201862, “PubChem BioAssay data set” (2004).

The source made the active and inactive calls.

T2 sequence (Q9HC97 whole entry): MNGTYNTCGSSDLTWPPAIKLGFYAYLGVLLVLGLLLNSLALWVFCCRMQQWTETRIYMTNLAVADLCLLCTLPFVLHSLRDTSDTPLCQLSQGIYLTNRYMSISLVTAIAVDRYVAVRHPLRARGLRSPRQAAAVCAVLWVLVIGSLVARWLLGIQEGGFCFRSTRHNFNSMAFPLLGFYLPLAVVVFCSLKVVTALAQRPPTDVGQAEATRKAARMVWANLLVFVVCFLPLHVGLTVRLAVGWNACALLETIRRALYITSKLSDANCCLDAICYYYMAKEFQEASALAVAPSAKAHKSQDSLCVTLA
T3 sequence (Q9Y2T6 whole entry): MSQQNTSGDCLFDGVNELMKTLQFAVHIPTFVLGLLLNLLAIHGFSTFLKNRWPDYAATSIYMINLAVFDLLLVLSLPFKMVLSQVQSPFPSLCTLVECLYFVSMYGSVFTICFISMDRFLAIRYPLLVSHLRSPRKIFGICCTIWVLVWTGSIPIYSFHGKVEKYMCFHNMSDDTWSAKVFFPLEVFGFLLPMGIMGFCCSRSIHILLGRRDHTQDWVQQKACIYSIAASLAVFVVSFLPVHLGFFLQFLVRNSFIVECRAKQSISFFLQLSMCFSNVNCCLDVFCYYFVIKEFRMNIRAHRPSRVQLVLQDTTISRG
T10 sequence (P41145 whole entry): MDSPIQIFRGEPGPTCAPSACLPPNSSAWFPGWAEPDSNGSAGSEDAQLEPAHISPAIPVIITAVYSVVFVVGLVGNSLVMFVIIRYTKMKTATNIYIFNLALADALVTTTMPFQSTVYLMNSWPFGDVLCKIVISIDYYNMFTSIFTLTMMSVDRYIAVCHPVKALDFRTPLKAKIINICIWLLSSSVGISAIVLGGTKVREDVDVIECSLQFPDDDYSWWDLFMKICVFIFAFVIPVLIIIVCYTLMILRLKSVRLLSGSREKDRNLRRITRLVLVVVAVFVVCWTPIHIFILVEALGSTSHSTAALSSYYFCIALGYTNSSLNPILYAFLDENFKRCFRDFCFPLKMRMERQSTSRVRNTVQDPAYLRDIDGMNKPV
T7 sequence (P51452 whole entry): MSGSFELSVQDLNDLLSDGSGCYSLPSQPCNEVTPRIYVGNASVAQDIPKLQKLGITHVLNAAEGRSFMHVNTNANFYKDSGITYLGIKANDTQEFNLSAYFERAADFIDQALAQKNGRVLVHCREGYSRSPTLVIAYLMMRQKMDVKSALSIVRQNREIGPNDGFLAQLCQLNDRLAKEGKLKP
T9 sequence (P41143 whole entry): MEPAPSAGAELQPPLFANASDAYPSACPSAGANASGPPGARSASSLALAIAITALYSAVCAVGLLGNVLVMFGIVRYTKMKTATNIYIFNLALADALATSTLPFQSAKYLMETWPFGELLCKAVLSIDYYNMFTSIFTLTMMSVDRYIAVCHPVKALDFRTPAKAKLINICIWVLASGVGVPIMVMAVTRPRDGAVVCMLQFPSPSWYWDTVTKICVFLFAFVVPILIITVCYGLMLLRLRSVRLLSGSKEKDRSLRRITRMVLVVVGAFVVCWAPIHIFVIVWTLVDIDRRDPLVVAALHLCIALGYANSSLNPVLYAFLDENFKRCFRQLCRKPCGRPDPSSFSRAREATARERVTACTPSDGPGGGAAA
T4 sequence (P21554 whole entry): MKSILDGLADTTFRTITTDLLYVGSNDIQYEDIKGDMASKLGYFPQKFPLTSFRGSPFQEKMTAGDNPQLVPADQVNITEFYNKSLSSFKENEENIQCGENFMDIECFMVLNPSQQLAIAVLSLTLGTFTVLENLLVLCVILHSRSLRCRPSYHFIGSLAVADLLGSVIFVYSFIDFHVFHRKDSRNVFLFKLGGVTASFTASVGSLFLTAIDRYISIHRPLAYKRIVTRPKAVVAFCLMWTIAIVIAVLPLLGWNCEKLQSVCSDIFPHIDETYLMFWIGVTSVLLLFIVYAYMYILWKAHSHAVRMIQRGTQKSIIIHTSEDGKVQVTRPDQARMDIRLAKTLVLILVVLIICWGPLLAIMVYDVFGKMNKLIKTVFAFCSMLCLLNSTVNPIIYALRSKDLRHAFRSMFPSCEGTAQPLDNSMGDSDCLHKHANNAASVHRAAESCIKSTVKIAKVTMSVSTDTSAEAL
T1 sequence (P34972 whole entry): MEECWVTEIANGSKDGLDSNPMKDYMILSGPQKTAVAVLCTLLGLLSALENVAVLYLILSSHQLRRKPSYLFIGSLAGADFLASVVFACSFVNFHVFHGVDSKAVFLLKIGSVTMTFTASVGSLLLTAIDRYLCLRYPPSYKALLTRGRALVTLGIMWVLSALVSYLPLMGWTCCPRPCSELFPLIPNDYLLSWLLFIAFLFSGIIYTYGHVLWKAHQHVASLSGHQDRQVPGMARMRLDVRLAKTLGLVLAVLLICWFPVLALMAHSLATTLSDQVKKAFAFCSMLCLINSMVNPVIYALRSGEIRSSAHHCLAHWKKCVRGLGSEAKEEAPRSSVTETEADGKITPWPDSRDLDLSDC
T11 sequence (P07550 whole entry): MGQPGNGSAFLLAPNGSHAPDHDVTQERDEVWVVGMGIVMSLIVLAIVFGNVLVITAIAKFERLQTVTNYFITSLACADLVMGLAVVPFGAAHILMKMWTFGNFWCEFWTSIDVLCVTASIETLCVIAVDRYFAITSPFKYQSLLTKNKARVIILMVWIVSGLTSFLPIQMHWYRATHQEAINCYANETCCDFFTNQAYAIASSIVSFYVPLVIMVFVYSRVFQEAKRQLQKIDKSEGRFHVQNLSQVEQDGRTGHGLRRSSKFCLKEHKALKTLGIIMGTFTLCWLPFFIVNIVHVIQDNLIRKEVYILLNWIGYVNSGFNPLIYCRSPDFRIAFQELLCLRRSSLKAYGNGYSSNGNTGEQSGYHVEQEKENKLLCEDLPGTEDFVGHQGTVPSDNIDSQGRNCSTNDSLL
Sequence of Mu-type opioid receptor (P35372 whole entry): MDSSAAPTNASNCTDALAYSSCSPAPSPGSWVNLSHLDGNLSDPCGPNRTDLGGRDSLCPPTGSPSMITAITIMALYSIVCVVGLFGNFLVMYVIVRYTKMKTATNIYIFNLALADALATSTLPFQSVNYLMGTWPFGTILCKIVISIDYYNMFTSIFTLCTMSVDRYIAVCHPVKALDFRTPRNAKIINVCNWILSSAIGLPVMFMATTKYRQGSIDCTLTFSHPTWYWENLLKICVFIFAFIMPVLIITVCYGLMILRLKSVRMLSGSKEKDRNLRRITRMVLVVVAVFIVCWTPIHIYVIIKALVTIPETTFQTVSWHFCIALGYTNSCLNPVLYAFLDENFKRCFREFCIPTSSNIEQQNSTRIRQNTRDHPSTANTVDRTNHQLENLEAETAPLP

Take `CCCCC1(Cc2ccc(OC)c([N+](=O)[O-])c2)C(=O)N(c2ccccc2)N(c2ccccc2)C1=O`: the IC50 (usually the concentration needed to halve the response being measured) on Cannabinoid receptor 2 [1] is > 32 µM (inactive); in [3], 3.42 µM (active); in test [4], > 32 µM (inactive); on Cannabinoid receptor 1 [5], > 32 µM (inactive); in [7], 1.81 µM (active). Moreover, the EC50 (in test [2]; on Cannabinoid receptor 1 [6]; on Cannabinoid receptor 2 [8]) was > 32 µM (inactive) throughout.
For the molecule `COc1ccc(NC(=O)c2cc3c(COC(C)=O)cnc(C)c3o/c2=N\c2cccc(C(=O)O)c2)c(OC)c1`, the IC50 is > 158 µM (not active) in [9]; 0.737 µM (active) in [10]; 1.53 µM (active) in test [11]; 3.13 µM (active) in [12]; 4.9 µM (active) in test [13]; > 50 µM (inactive) in test [14].
In the case of `O=C(c1ccc([N+](=O)[O-])cc1)N(Cc1ccc(Br)cc1)N1C(=O)CCCC1=O`, the EC50 (as a rule, the concentration at which the effect is half-maximal) in test [15] is > 32 µM (inactive); in test [16], 3.55 µM; at Mu-type opioid receptor, > 32 µM (inactive); in test [18], over 35 µM. In addition, the IC50 in [17] was > 32 µM (inactive).
As to `Cc1ccccc1N1CCN(c2ncnc3c2cnn3Cc2ccc(Cl)cc2)CC1`, the figures for the IC50 in test [19], in [20] and in test [26] were > 32 µM (inactive), > 32 µM (not active) and 0.615 µM (active), respectively. The EC50 in [21] was 42.2 µM (active); in test [22] it was 54.1 µM (active); in test [24] it was 4.09 µM (active); in test [25], 1.14 µM (active). Also, in test [23], the CC50 is > 40 µM (active).
